Measured values taken from US11672785B2, “Tetrahydro-1H-pyrido [3,4-b]indole anti-estrogenic drugs” (Olema Pharmaceuticals, Inc., priority 2015, dated 2023).
“Also recorded” adds a separate entry of the source. Read-outs that look alike come from different tables or passages of the source.

Columns and labels:
[1] = tested on: MCF-7 breast cancer cells; assay: Inhibition of E2-stimulated proliferation of MCF-7 cells (Cyquant); type: cell-based; conditions: Homo sapiens, MCF7
Protocol: Proliferation of MCF-7 breast cancer cells was measured using Cyquant, a fluorescent DNA-binding dye (Thermo Fisher Scientific). MCF-7 cells were treated with antiestrogens in triplicate in hormone-depleted medium for 5-7 days in the presence of 100 pM E2. Fluorescent activity was normalized to the activity of E2 alone and IC50's were calculated using the least squares fit method.

[2] = Free fraction of drug in mouse plasma, rapid equilibrium dialysis; type: in vitro ADME
Excerpt: (§1) Method for detecting free fraction of drug in plasma: Compounds were screened for binding to human and mouse plasma (Bioreclamation, IVT) using a rapid equilibrium dialysis device (Thermo Fisher Scientific) and compounds subsequently detected by LC-MS/MS. Percent free drug equals the concentration of compound in buffer chamber divided by that in the […] chamber×100.

MCF-7 (HER2/neu) tumors = assay: Xenograft study, Clone 18 (MCF7/Her2/neu) tumors in athymic ovariectomized nu/nu mice; type: in vivo; conditions: oral gavage, 10 mg/kg, FIGS. 5A-B
Protocol: Xenograft studies were conducted by the Preclinical Therapeutics Core at the University of California, San Francisco in accordance with the Institutional Animal Care and Use Committee (IACUC) guidelines. Clone 18 cells (MCF7/Her2/neu) cells were grown in culture and implanted into athymic ovariectomized nu/nu mice. To stimulate tumor growth 0.36 mg estradiol 90 day release pellets (Innovative Research, Saratoga, Fla.) were implanted along with cells. When tumors reached 150-250 cubic millimeters the pellets were exchanged for 0.18 mg estradiol 90 day release pellets and divided into groups of six mice per treatment group. One of those groups received vehicle only (0.5% CMC+8% DMSO), and Compound B and Compound C each had 2 groups treated with either 10 or 100 mg/kg compound. Compounds were administered by oral gavage twice daily, except once daily on weekends/holidays for the first 21 days, and once daily after day 21. Tumors and bodyweight were measured twice weekly.

ERα [3] = target: T1, ERα (Homo sapiens (Human), UniProt P03372); assay: ER degradation in MCF-7 cells, immunoblot; type: cell-based; conditions: 100 nM, 24 hours, serum-free medium
Protocol: MCF-7 cells were treated with 100 nM anti-estrogen for 24 hours in serum-free medium and protein extracts immunoblotted with D12 antibody to ERα and β-actin (Santa Cruz Biotechnology). The numbers below the blots represent the optical density of ERα bands of each treatment relative to percent vehicle after normalization to β-actin.

ERα [4] = target: T1, ERα; assay: ERα levels in MCF-7 cells, in-cell western (Colorimetric In-Cell ELISA); type: cell-based; conditions: for Relative change in ERα levels in breast cells % Veh: MCF-7, 24 hours
Protocol: IC50's were calculated using the least squares fit method. Error bars represent S.E.M from triplicate wells.

[5] = Pharmacokinetics in BALB/c female mice, oral gavage; type: in vivo; conditions: for oral drug exposure, free fraction taken into account, vs equal dose of Compounds 107 and 102: mice, oral gavage, FIGS. 1A-1B
Protocol: Pharmacokinetics were studied in BALB/c female mice. For each arm, three BALB/c female mice were given 5 mg/kg of compound in 0.5% CMC formulation by oral gavage. Concentration of compounds in mouse plasma and their metabolites were analyzed at each time point using LC-MS/MS. The concentrations were adjusted for the free fraction of drug in mouse plasma (method below). Area under the curve was calculated using the trapezoidal rule for 0-24 hours.

[6] = tested on: estrogen-responsive reporter gene, ERE-tk109-Luc; assay: Inhibition of E2-induced transcription, ERE-tk109-Luc reporter in transfected MCF-7 cells; type: cell-based; conditions: Homo sapiens, MCF7
Protocol: Representative compounds were tested for their inhibitory activity of estrogen according to the assay methods described in Hodges-Gallagher, L., Valentine, C. […] Specifically, MCF-7 cells were transiently transfected with an estrogen-responsive reporter gene, ERE-tk109-Luc. […] Luciferase activity was normalized to activity of E2 alone and IC50's were calculated using the least squares fit method.

[7] = Free fraction of drug in human plasma, rapid equilibrium dialysis; type: in vitro ADME
Excerpt: as §1

[8] = tested on: AP activity in ECC-1 cells; assay: Alkaline phosphatase (AP) assay in ECC-1 uterine cells, antagonist mode (co-treated with 500 pM E2); type: cell-based, human; conditions: 100 nM antiestrogen
Protocol: Method for performing the alkaline phosphatase (AP) assay. ECC-1 cells were trypsinized and resuspended in hormone-depleted media and plated at a density of 15 k cells per well into a 96-well plate for at least 4 hours. Cells were treated with antiestrogens for 3 days and plates were subsequently frozen at −80° C. […] AP activity was normalized to the activity of E2 alone.

[9] = tested on: AP activity in ECC-1 cells; assay: Alkaline phosphatase (AP) assay in ECC-1 uterine cells, agonist mode; type: cell-based, human; conditions: mean of n
Protocol: Method for performing the alkaline phosphatase (AP) assay. ECC-1 cells were trypsinized and resuspended in hormone-depleted media and plated at a density of 15 k cells per well into a 96-well plate for at least 4 hours. Cells were treated with antiestrogens for 3 days and plates were subsequently frozen at −80° C. Thawed plates were incubated with a chromogenic substrate of AP, p-nitrophenyl phosphate (Thermo Fisher Scientific), for 40 minutes at 40° C. and absorbances were read at 405 nm. AP activity was normalized to the activity of E2 alone. […] A representative result for induction of AP activity in uterine cells (% E2) is shown below in tabular form: […]

[10] = MCF-7, 100 pM E2, 5-7 days, read-out: inhibition of E2-stimulated proliferation in breast cells IC50
[11] = Table 1, read-out: MCF-7 Proliferation IC50
[12] = mean of n, read-out: Inhibition of E2-stimulated proliferation in breast cells pIC50 (converted)
[13] = BALB/c mice, 5 mg/kg oral gavage
[14] = MCF-7, 100 pM E2, 22 hours, read-out: inhibition of E2-induced transcription in breast cells IC50
[15] = Table 1, read-out: ERE-Luc IC50
[16] = mean of n, read-out: Inhibition of E2-stimulated transcription in breast cells pIC50 (converted)

T1 sequence (P03372 whole entry): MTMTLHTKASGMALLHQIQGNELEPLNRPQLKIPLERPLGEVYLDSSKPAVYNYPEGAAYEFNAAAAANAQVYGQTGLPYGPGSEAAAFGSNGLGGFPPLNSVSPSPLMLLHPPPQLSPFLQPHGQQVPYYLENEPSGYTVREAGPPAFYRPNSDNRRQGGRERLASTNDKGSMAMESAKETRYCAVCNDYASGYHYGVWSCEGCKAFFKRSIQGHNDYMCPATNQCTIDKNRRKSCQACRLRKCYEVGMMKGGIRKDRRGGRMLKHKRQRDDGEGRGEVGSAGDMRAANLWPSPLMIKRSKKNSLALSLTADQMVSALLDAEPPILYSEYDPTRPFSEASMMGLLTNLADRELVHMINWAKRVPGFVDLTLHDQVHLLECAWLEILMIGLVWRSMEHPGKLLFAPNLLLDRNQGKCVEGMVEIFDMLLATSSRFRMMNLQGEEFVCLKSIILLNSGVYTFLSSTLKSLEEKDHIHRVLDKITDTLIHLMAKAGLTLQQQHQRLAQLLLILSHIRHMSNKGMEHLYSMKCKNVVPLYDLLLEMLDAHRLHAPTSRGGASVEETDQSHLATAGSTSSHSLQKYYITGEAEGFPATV

Row | Structure (SMILES) | IC50 [1, 10] [nM] | IC50 [1, 11] [nM] | IC50 [1, 12] [nM] | fraction unbound [2] | tumor shrinkage in xenografted mice (MCF-7 (HER2/neu) tumors) | ER degradation in MCF-7 cells (immunoblot, FIG. 7) (ERα [3]) | ER degradation in MCF-7 cells (in-cell western, FIG. 2) (ERα [4]; 24 hours) | Relative change in ERα levels in breast cells % Veh (ERα [4]) [% Veh] | 24 hour drug exposure compared to other compounds [5, 13] | half-life [5, 13] | oral bioavailability [5, 13] | oral drug exposure, free fraction taken into account, vs equal dose of Compounds 107 and 102 [5] | IC50 [6, 14] [nM] | IC50 [6, 15] [nM] | IC50 [6, 16] [nM] | fraction unbound [7] | residual AP activity in uterine cells (% of E2 alone) [8] [% E2] | Induction of Alkaline Phosphatase (AP) % E2 [9] [% E2]
1 | CCCN1CC(Oc2ccc([C@@H]3c4[nH]c5ccccc5c4C[C@@H](C)N3CC(C)(C)F)cc2)C1 [Compound B, (1R,3R)-2-(2-fluoro-2-methylpropyl)-3-methyl-1-(4-((1-propylazetidin-3-yl)oxy)phenyl)-2,3,4,9-tetrahydro-1H-pyrido[3,4-b]indole] | 4.53 | 4.53 | 7.76 | 0.00027 | outstandingly potent in shrinking human breast cancer xenografts; also recorded: shrinks MCF-7 (HER2/neu) tumors | degrades the estrogen receptor | degrades the estrogen receptor | 45 | better | high | high | substantially higher | 4.35 | 4.35 | 4.37 | 0.00036 |  | 
2 | C[C@@H]1Cc2c([nH]c3ccccc23)[C@@H](c2c(F)cc(OCCN3CC(CF)C3)cc2F)N1CC(C)(C)F [Compound D, (1R,3R)-1-(2,6-difluoro-4-(2-(3-(fluoromethyl)azetidin-1-yl)ethoxy)phenyl)-2-(2-fluoro-2-methylpropyl)-3-methyl-2,3,4,9-tetrahydro-1H-pyrido[3,4-b]indole] | 8.4 | 8.4 | 10.5 | 0.00036 |  |  |  |  |  |  |  |  | 10 | 10 | 9.55 | 0.00044 | 4.07 | 
3 | C[C@@H]1Cc2c([nH]c3ccccc23)[C@@H](c2ccc(OCCN3CC(CF)C3)cc2)N1CC(C)(C)F [Compound C, (1R,3R)-2-(2-fluoro-2-methylpropyl)-1-(4-(2-(3-(fluoromethyl)azetidin-1-yl)ethoxy)phenyl)-3-methyl-2,3,4,9-tetrahydro-1H-pyrido[3,4-b]indole] | 1.3 | 14.5 | 11.7 | 0.00092 | outstandingly potent in shrinking human breast cancer xenografts |  |  | 42 |  |  |  | substantially higher | 10.7 | 10.7 | 8.13 | 0.00151 |  | 
4 | C[C@@H]1Cc2c([nH]c3ccccc23)[C@@H](c2c(F)cc(/C=C/C(=O)O)cc2F)N1CC(C)(C)F [AZD9496, (E)-3-(3,5-Difluoro-4-((1R,3R)-2-(2-fluoro-2-methylpropyl)-3-methyl-2,3,4,9-tetrahydro-1H-pyrido[3,4-b]indol-1-yl)phenyl)acrylic Acid, reference compound] |  |  |  | 0.00214 |  |  |  |  |  |  |  |  | 0.2 | 0.2 | 0.631 | 0.00308 |  | 
5 | CCCN1CC(Oc2cc(F)c([C@@H]3c4[nH]c5ccccc5c4C[C@@H](C)N3CC(C)(C)F)c(F)c2)C1 [Goodacre Compound 107, (1R,3R)-1-(2,6-difluoro-4-((1-propylazetidin-3-yl)oxy)phenyl)-2-(2-fluoro-2-methylpropyl)-3-methyl-2,3,4,9-tetrahydro-1H-pyrido[3,4-b]indole, reference compound] |  |  | 7.59 | 0.00012 |  |  |  |  |  |  |  |  |  |  | 4.37 | 0.00013 |  | 0.00
6 | Oc1ccc2c(c1)CC[C@H](c1ccccc1)[C@@H]2c1ccc(OCCN2CCCC2)cc1 [Lasofoxifene, reference compound] | 11 |  |  |  |  |  |  |  |  |  |  |  | 4.6 |  |  |  |  | 
7 | C[C@]12CC[C@@H]3c4ccc(O)cc4C[C@@H](CCCCCCCCC[S+]([O-])CCCC(F)(F)C(F)(F)F)[C@H]3[C@@H]1CC[C@@H]2O (stereo partly drawn) [Fulvestrant, reference compound] | 2.1 |  | 2.63 |  |  |  |  |  |  |  |  |  | 1.4 |  | 1.91 | 1e-05 |  | 
8 | CCCN1CC(Oc2ccc([C@@H]3c4[nH]c5ccccc5c4C[C@@H](C)N3CC(C)(C)F)cc2F)C1 [Compound A, (1R,3R)-2-(2-fluoro-2-methylpropyl)-1-(3-fluoro-4-((1-propylazetidin-3-yl)oxy)phenyl)-3-methyl-2,3,4,9-tetrahydro-1H-pyrido[3,4-b]indole] | 7.58 | 7.58 |  |  |  |  |  |  |  |  |  |  | 2.96 | 2.96 |  |  |  | 
